Assay results published in publication PMC7400457, “Profiling and Identification of Omeprazole Metabolites in Mouse Brain and Plasma by Isotope Ratio-Monitoring Liquid Chromatography-Mass Spectrometric Method” (Life, 2020).
Like-named read-outs stand apart in the source and are kept apart here. One block for each compound: values may come before it.

How the values were obtained:
[1] = In vivo metabolite identification (MetID) after concomitant omeprazole/D3-omeprazole administration, mouse plasma and brain; parameters: species or system Male ICR mice; key to D, i.p. route (brain): found / not found / E, i.v. route (brain): found / not found / F, p.o. route (brain): found / not found / A, i.p. route (plasma): found / not found / B, i.v. route (plasma): found / not found / C, p.o. route (plasma): found / not found: O, found; -, not found; conditions: for D, i.p. route (brain): found / not found / A, i.p. route (plasma): found / not found: 50 mg/kg omeprazole/D3-omeprazole 1:1, i.p.; for D, i.p. route (brain): found / not found / E, i.v. route (brain): found / not found / F, p.o. route (brain): found / not found: mouse brain; for A, i.p. route (plasma): found / not found / B, i.v. route (plasma): found / not found / C, p.o. route (plasma): found / not found: mouse plasma; for E, i.v. route (brain): found / not found / B, i.v. route (plasma): found / not found: 50 mg/kg omeprazole/D3-omeprazole 1:1, i.v.; for samples (matrix/route) in which the metabolite was observed: 50 mg/kg omeprazole/D3-omeprazole 1:1, mice; for F, p.o. route (brain): found / not found / C, p.o. route (plasma): found / not found: 50 mg/kg omeprazole/D3-omeprazole 1:1, p.o.
Description: The LC–QTOF-MS system was consisted of a chromatographic pump system (Shimadzu CBM–20A/LC–20AD, Shimadzu Scientific Instruments, Riverwood Dr, Columbia, SC, USA), an auto-sampler system (Eksigent CTC HTS PAL, Sciex, Redwood City, CA, USA), equipped with a mass spectrometer (TripleTOF^TM 5600, Sciex, Redwood City, CA, USA). Chromatographic separation was performed using reversed-phase C18 columns (Phenomenex® Kinetex XB–C18 column; 2.1 × 50 mm for bioanalytical sample quantification and 2.1 × 100 mm for MetID). The HPLC mobile phase was comprised of distilled/deionized water containing 0.1% formic acid (phase A) and acetonitrile containing 0.1% formic acid (phase B) with a binary gradient program. The LC–gradient was optimized as follows: 3.2 min for the quantification (0–0.5 min, 5% B; 0.5–1.2 min, 5–95% B; 1.2–1.4 min, 95% B; 1.4–1.5 min, 95–5% B; and 1.5–3.2 min, 5% B with a flow rate of 0.4 mL/min) and 23 min for MetID (0–1 min, 5% B; 1–13 min, 5–40% B; 13–13.5 min, 40–45% B; 13.5–15.5 min, 45–90% B; 15.5–17.9 min, 90% B; 17.9–18 min, 90–5% B; and 18–23 min, 5% B with a flow rate of 0.3mL/min). In particular, the LC separation conditions for MetID studies were optimized where the peaks of metabolites were separated as much as possible. This was critical in searching for any relevant metabolites originated from omeprazole with unique isotope ratio 1:1.
The single reaction monitoring at high sensitivity option (SRMHS) in the product ion scan was used for the quantification of PK as well as MetID samples. The information-dependent analysis (IDA) method including high resolution TOF full scan and seven unique information-dependent product ion scans were performed for the MetID study. The ion spray voltage (ISVF) was set at 5500 V. The source gas (nebulizer [GS1, ion source gas1] and heater [GS2, ion source gas2]) was set at 50 psi, and the source temperature was set at 500 °C with the curtain gas (CUR) flow of […].
A separate in vivo MetID study was conducted. A total of 50 mg/kg (1:1 ratio of omeprazole and D3–omeprazole) was given through each administration route (p.o., i.v. and i.p.). After administration, blood and brain tissue sampling was conducted in the same manner as the previous PK studies. The collected samples were stored at −80 °C until analysis.
The plasma samples obtained from the study dosed with 50 mg/kg were collected according to the Hamilton pooling method. The pooled plasma sample (a total of 274 μL) was transferred to a clean tube, and 1 mL of ACN was added. The pretreated samples were centrifuged at 10,000 rpm for 5 min, and 1100 μL of the supernatant was evaporated to dryness under vacuum in a centrifugal evaporator (CVE–3110, Eyela, Tokyo, Japan) connected to cold trap (UT–1000, Eyela, Tokyo, Japan). The dried residue was re-constituted, shaken and centrifuged. After centrifugation, the supernatant was transferred to an LC–vial for analysis.
The metabolites of omeprazole were investigated using an LC–QTOF–MS assay. […] In this case, any metabolites having a mass difference of 3 daltons between omeprazole and its stable isotope D3–omeprazole were thoroughly searched as possible drug-related metabolites.

[2] = Pharmacokinetic study of omeprazole in mice after i.v., i.p. and p.o. administration (plasma and brain, LC-QTOF-MS); format: in vivo, Male ICR mice; conditions: 10 mg/kg; for Kp: brain/plasma; for bioavailability: read-out: BA (bioavailability)
Description: Omeprazole formulation was freshly prepared on the day of experiment. Mice were randomly distributed into three different groups (twelve mice per group; p.o. group, i.v. group and i.p. group) and received 10 mg/kg of omeprazole. […] Blood was drawn into the heparinized tubes through cardiac puncture and was immediately centrifuged at 10,000 rpm for 5 min. The supernatant of the centrifuged samples was transferred to the clean tubes and stored at −80 °C until analysis. […] The homogenized samples were stored at −80 °C until usage. • Plasma samples: Ten microliters of the mouse plasma samples were placed in cluster tubes. […] Hundred microliters of ACN containing internal standard (ISTD, verapamil) was added to each sample for extraction. The mixture was capped, gently shaken for approximately 1 min and then was centrifuged for 5 min at 10,000 rpm (4 °C). Following the centrifugation, 50 μL supernatant was transferred to a clean test tube and was diluted with 100 μL of distilled water. […] Ten microliters of the mouse brain homogenate were placed in cluster tubes. […] Hundred microliters of ACN containing internal standard (ISTD, verapamil) was added to each sample for extraction. The mixture was capped, gently shaken for approximately 1 min and then centrifuged for 5 min at 10,000 rpm (4 °C). Following the centrifugation, 50 μL supernatant was transferred to a clean test tube and was diluted with 100 μL of distilled water. The resulting mixture was then transferred to an LC-vial, and 10 μL was injected to the LC–QTOF–MS. • Standard (STD) and quality control (QC) samples: […] The mixture was capped, gently shaken for approximately 1 min and then centrifuged for 5 min at 10,000 rpm (4 °C). Following the centrifugation, 50 μL supernatant was transferred to a clean test tube and was diluted with 100 μL of distilled water. The resulting mixture was then transferred to an LC–vial, and 10 μL was injected to the LC–QTOF–MS. Data acquisition and LC–QTOF-MS operation was conducted using Analyst® TF Version 1.6 (Sciex). MultiQuant® Version 2.1.1 (Sciex) was used for the peak integration of omeprazole for quantification. PeakView® Version 2.2 and MetabolitePilot^TM Version 2.0.2 were used for the structural elucidation of omeprazole metabolites. Pharmacokinetic parameters were calculated in a non-compartmental analysis using WinNonlin® version 8.0.0 (Certara, Princeton, NJ, USA). The developed LC–QTOF-MS method was successfully applied to determine the PK parameters after i.v., i.p. and p.o. administration at a dose level of 10 mg/kg each for omeprazole in mice. During the sample preparation of the PK samples, QC samples were included for the assurance of the bioanalytical run. All the PK samples were within the range of the qualified calibration range (3.02~6670 ng/mL). Final concentrations were calculated by considering the dilution factors (e.g., 4× and 2× of the concentrations obtained from the brain and plasma, respectively). Each PK parameters were measured by non-compartmental analysis using WinNonlin (version 8.0.0). […] (Kp) = AUCbrain/AUCplasma(1)

Compound: COc1c(C)cnc(CSc2nc3cc(O)ccc3[nH]2)c1C [Metabolite M17]
D, i.p. route (brain): found / not found [1]: O | A, i.p. route (plasma): found / not found [1]: - | E, i.v. route (brain): found / not found [1]: O | B, i.v. route (plasma): found / not found [1]: - | samples (matrix/route) in which the metabolite was observed [1]: only from the brain–IP route and brain–IV route | F, p.o. route (brain): found / not found [1]: - | C, p.o. route (plasma): found / not found [1]: -

Compound: COc1ccc2nc(S(=O)(=O)Cc3ncc(C)c(OC)c3C)[nH]c2c1 [Metabolite M14, omeprazole sulfone]
D, i.p. route (brain): found / not found [1]: O | A, i.p. route (plasma): found / not found [1]: O | E, i.v. route (brain): found / not found [1]: O | B, i.v. route (plasma): found / not found [1]: O | samples (matrix/route) in which the metabolite was observed [1]: all plasma samples (all dosing routes) and all brain samples (all dosing routes) | F, p.o. route (brain): found / not found [1]: O | C, p.o. route (plasma): found / not found [1]: O

Compound: COc1ccc2[nH]c(SCC(NC(C)=O)C(=O)O)nc2c1 (stereo not shown) [Metabolite M1]
D, i.p. route (brain): found / not found [1]: - | A, i.p. route (plasma): found / not found [1]: O | E, i.v. route (brain): found / not found [1]: - | B, i.v. route (plasma): found / not found [1]: O | samples (matrix/route) in which the metabolite was observed [1]: plasma–IV route and plasma-IP route samples | F, p.o. route (brain): found / not found [1]: - | C, p.o. route (plasma): found / not found [1]: -

Compound: COc1c(C)cnc(C[S+]([O-])c2nc3cc(O[C@@H]4O[C@H](C(=O)O)[C@@H](O)[C@H](O)[C@H]4O)ccc3[nH]2)c1C (stereo partly shown) [Metabolite M2]
D, i.p. route (brain): found / not found [1]: O | A, i.p. route (plasma): found / not found [1]: O | E, i.v. route (brain): found / not found [1]: O | B, i.v. route (plasma): found / not found [1]: O | samples (matrix/route) in which the metabolite was observed [1]: all samples except the brain–PO route sample | F, p.o. route (brain): found / not found [1]: - | C, p.o. route (plasma): found / not found [1]: O

The next lines start with results.

D, i.p. route (brain): found / not found [1]: O | A, i.p. route (plasma): found / not found [1]: O | E, i.v. route (brain): found / not found [1]: O | B, i.v. route (plasma): found / not found [1]: O | F, p.o. route (brain): found / not found [1]: O | C, p.o. route (plasma): found / not found [1]: O
Compound: COc1ccc2[nH]c([S+]([O-])Cc3ncc(C)cc3C)nc2c1 (stereo not shown) [Metabolite M11]
samples (matrix/route) in which the metabolite was observed [1]: all plasma samples (all dosing routes) and all brain samples (all dosing routes)

D, i.p. route (brain): found / not found [1]: O | A, i.p. route (plasma): found / not found [1]: O | E, i.v. route (brain): found / not found [1]: O | B, i.v. route (plasma): found / not found [1]: O | F, p.o. route (brain): found / not found [1]: O | C, p.o. route (plasma): found / not found [1]: O
Compound: COc1ccc2[nH]c([S+]([O-])Cc3ncc(C)c(OC)c3C)nc2c1 (stereo not shown) [Omeprazole]
brain-to-plasma partition coefficient (Kp) = AUCbrain/AUCplasma ([2]; i.p., AUClast): 0.0681 | Kp ([2]; male, ICR, mouse, ip, i.p., AUClast, read-out: brain-to-plasma partition coefficient (Kp) = AUCbrain/AUCplasma): 0.068 | Kp ([2]; male, ICR, mouse, ip, i.p., read-out: Brain/Plasma Ratio): 0.0681 | Kp ([2]; male, ICR, mouse, iv, i.v., AUClast, read-out: brain-to-plasma partition coefficient (Kp) = AUCbrain/AUCplasma): 0.15 | Kp ([2]; male, ICR, mouse, iv, i.v., read-out: Brain/Plasma Ratio): 0.147 | Kp ([2]; male, ICR, mouse, po, p.o., AUClast, read-out: brain-to-plasma partition coefficient (Kp) = AUCbrain/AUCplasma): 0.064 | Kp ([2]; male, ICR, mouse, po, p.o., read-out: Brain/Plasma Ratio): 0.0643 | AUC(0-t) ([2]; male, ICR, mouse, ip, brain): 72.8 ng·h/mL | half-life ([2]; male, ICR, mouse, ip, brain): 51.3 min | AUC(0-t) ([2]; male, ICR, mouse, ip, plasma): 1070 ng·h/mL | Cmax ([2]; male, ICR, mouse, ip, plasma): 4890 ng/mL | half-life ([2]; male, ICR, mouse, ip, plasma): 28.8 min | AUC(0-t) ([2]; male, ICR, mouse, iv, brain): 652 ng·h/mL | half-life ([2]; male, ICR, mouse, iv, brain): 48.2 min | AUC(0-t) ([2]; male, ICR, mouse, iv, plasma): 4440 ng·h/mL | Cmax ([2]; male, ICR, mouse, iv, plasma): 67600 ng/mL | Vd ([2]; male, ICR, mouse, iv, plasma): 1.49 L/kg | clearance ([2]; male, ICR, mouse, iv, plasma): 37.8 mL/min/kg | half-life ([2]; male, ICR, mouse, iv, plasma): 27.4 min | bioavailability ([2]; male, ICR, mouse, plasma, ip): 24.1% | bioavailability ([2]; male, ICR, mouse, plasma, po): 5.31% | AUC(0-t) ([2]; male, ICR, mouse, po, brain): 15.2 ng·h/mL | Cmax ([2]; male, ICR, mouse, po, brain): 37.8 ng/mL | half-life ([2]; male, ICR, mouse, po, brain): 44.6 min | AUC(0-t) ([2]; male, ICR, mouse, po, plasma): 236 ng·h/mL | Cmax ([2]; male, ICR, mouse, po, plasma): 610 ng/mL | half-life ([2]; male, ICR, mouse, po, plasma): 54.8 min | brain-to-plasma partition coefficient (Kp) = AUCbrain/AUCplasma ([2]; p.o., AUClast): 0.0643

D, i.p. route (brain): found / not found [1]: O | A, i.p. route (plasma): found / not found [1]: O | E, i.v. route (brain): found / not found [1]: O | B, i.v. route (plasma): found / not found [1]: O | F, p.o. route (brain): found / not found [1]: O | C, p.o. route (plasma): found / not found [1]: O
Compound: COc1ccc2[nH]c(SCc3ncc(C)c(OC)c3C)nc2c1 [Metabolite M15, omeprazole sulfide]
samples (matrix/route) in which the metabolite was observed ([1]; 50 mg/kg): all plasma samples (all dosing routes) and all brain samples (all dosing routes)
